From patent publication US10780092B2, “Fused pyrazine derivatives useful as soluble guanylate cyclase stimulators” (Merck Sharp & Dohme Corp., priority 2016, dated 2020)

Tests used:
sGC α1/β1 heterodimer = sGC α1/β1 heterodimer (Homo sapiens (Human), UniProt Q02108+Q02153); assay: Cell-based sGC functional assay (CASA assay), cGMP by HTRF; conditions: CHO-K1/sGC cells; for EC50: inflection point of cGMP production, 4P fit, read-out: IP; for Emax: CHO-K1, cGMP production as percentage of maximum of compound A (set to 100%), read-out: % Activation
Text: Cell-Based sGC Functional Assay (Cyclic GMP Assay for sGC Activator: CASA Assay)
Soluble guanylate cyclase (sGC) is a heme-containing enzyme that converts GTP to secondary messenger cGMP. Increases in cGMP levels affect several physiological processes including vasorelaxation through multiple downstream pathways. […] Heme-dependent activators (HDAs) preferentially target sGC containing a ferrous heme group. To determine the effect of sGC activators on enzyme activity, the CASA assay was developed to monitor the generation of cGMP in a cell line that stably expresses the heterodimeric sGC protein.
A CHO-K1 cell line stably expressing the sGC α1/β1 heterodimer was generated using a standard transfection protocol. The cDNA's encoding human sGC α1 and β1 were cloned in pIRES hyg and pIRES neo respectively using standard molecular biology techniques. The plasmids pIRES hyg and pIRES neo plasmids were obtained from Clontech. CHO-K1 cells were transfected with plasmids pIREShyg-hsGCα1 and pIRESneo-hsGCβ1 simultaneously using FUGENE reagent. Clones that stably express both subunits were selected with hygromycin and neomycin for ˜2 weeks. The clone chosen for the assay was designated CHO-K1/sGC. CHO-K1/sGC cells were maintained in F-K12 medium containing 10% heat-inactivated Fetal Bovine Serum (FBS), 100 μg/mL penicillin/streptomycin, 0.5 mg/mL hygromycin and 0.25 mg/mL G418. The cells were then cryopreserved in liquid nitrogen. On the day of the assay, the cells were thawed and resuspended in EBSS Assay Buffer (Sigma, E3024) supplemented with 5 mM MgCl2, 10 mM HEPES (4-(2-hydroxyethyl)piperazine-1-ethanesulfonic acid) and 0.05% BSA (bovine serum albumin) and cell density was then adjusted to 2.25×10^5/mL with EAB. IBMX (3-isobutyl-1-methylxanthin, 0.5 mM) was added to inhibit degradation of cGMP. Compounds were diluted from DMSO stock solutions and added to the assay at a final DMSO concentration of 2.5%. Cells were pre-incubated in the presence and absence of 1 μM of Diethylenetriamine/nitric oxide adduct (DETA-NO; Sigma, 17018) for 30 min at 25° C. Compounds were subsequently added and incubated for 1 hr at 37° C. At the end of the incubation period, the reaction was terminated and the cells were lysed with the detection reagents from Cisbio Kits. The level of intracellular cGMP was determined using an HTRF-based assay kit (CisBio, 62GM2PEC), which detects the displacement of a fluorescence labeled cGMP from its specific antibody. The cGMP produced by test compounds was directly compared to the maximum cGMP production (this value was set to equal 100% activation) of the published sGC compound A (Example 1 in WO 2010/065275, published Jun. 10, 2010).
The test compounds' activities were then expressed as a percentage of compound A, the standard in every experiment. This percent activation was calculated either in the presence or absence of DETA-NO which was then plotted. Inflection points (IP) and maximum fold induction was derived using Abase analysis software for 4P fit.

[1] = target: human recombinant sGC enzyme (Homo sapiens (Human), UniProt Q02108+Q02153); assay: SEC competition binding assay with [3H] Compound B radioligand; conditions: displacement of 1.6 nM [3H] Compound B, 24 h at 37° C.
Description: The binding potencies of sGC compounds to the human recombinant sGC enzyme were determined in a Size Exclusion Chromatography (SEC) competition binding assay using [^3H] Compound B as the radioligand. [^3H] Compound B was prepared using a standardardized tritium exchange procedure. The parent (non-labeled) molecule was first iodinated then a Pd-catalyzed iodine to tritium exchange provided the labeled compound.
Method: The binding buffer was composed of 50 mM triethanolamine pH 7.4, 3 mM MgCl2, 0.025% BSA, 2 mM dithiothreitol (DTT), 300 μM DETA/NO and 400 μM GTP. Assays were conducted in 96-well plates in a total volume of 200 μL. Recombinant human sGC protein (40 ng) was incubated with 1.6 nM [^3H] Compound B for 24 h at 37° C. in the presence and absence of various concentrations of sGC testing compounds delivered as DMSO solutions to give a total of 1% organic solvent content. Non-specific binding was defined by competition with 1 μM of Compound B. After the incubation period, the binding mixtures were loaded onto the gel-filtration plate (ThermoFischer Cat. No. 89808) pre-equilibrated with binding buffer and spun at 1000×g for 3 min at 4° C. on a Bench top centrifuge. The collected eluates in White Frame Clear Well Isoplates (Perkin Elmer Cat #6005040) received 100 μl of UltimaGold scintillation cocktail. The sealed plates were shaken vigorously and span, and counted after 6 hs with a Wallac Microbeta TriLux 1450 LSC & Luminescence Counter (Perkin Elmer). Data from competition experiments were analyzed to determine Ki values using one site—fit Ki equation.

Compound	% Activation (sGC α1/β1 heterodimer; cGMP production as percentage of maximum of compound A (set to 100%)) [%]	EC50 (sGC α1/β1 heterodimer) [nM]	Ki [1] [nM]	Emax (sGC α1/β1 heterodimer) [%]
CC1CCC(Cc2nc(-c3nc(N)c4c(n3)NC(=O)C4(C)c3ccc(O)c(Cl)c3)cn3ccnc23)CC1 (single isomer, unassigned) [Example 120-BB, 4-Amino-5-(3-chloro-4-hydroxyphenyl)-5-methyl-2-{8-[(4-methylcyclo-hexyl)methyl]imidazo-[1,2-a]pyrazin-6-yl}-5,7-dihydro-6H-pyrrolo-[2,3-d]pyrimidin-6-one]	121	39	3.79	
CC1(c2ccc(Cl)c(O)c2)C(=O)Nc2nc(-c3cn4ccnc4c(Cc4ccc(Cl)cc4)n3)nc(N)c21 (stereo not drawn) [Example 44-A, 4-Amino-5-(4-chloro-3-hydroxyphenyl)-2-{8-[(4-chlorophenyl)methyl]imidazo[1,2-a]pyrazin-6-yl}-5-methyl-5,7-dihydro-6H-pyrrolo[2,3-d]pyrimidin-6-one]		460	0.507	100
CCCCc1nc(-c2nc(N)c3c(n2)NC(=O)C3(C)c2ccc(F)c(O)c2)cn2ncnc12 (stereo not drawn) [Example 62-B, 4-Amino-2-(8-butyl-[1,2,4]triazolo[1,5-a]pyrazin-6-yl)-5-(4-fluoro-3-hydroxyphenyl)-5-methyl-5,7-dihydro-6H-pyrrolo[2,3-d]pyrimidin-6-one]		49	2.21	97
CC1(c2ccc(Cl)c(O)c2)C(=O)Nc2nc(-c3cn4c(N)cnc4c(Cc4cccc(F)c4)n3)nc(N)c21 (stereo not drawn) [Example 140-A, 4-Amino-2-(3-amino-8-[(3-fluorophenyl)methyl]imidazo[1,2-a]pyrazin-6-yl)-5-(4-chloro-3-hydroxyphenyl)-5-methyl-5,7-dihydro-6H-pyrrolo[2,3-d]pyrimidin-6-one]		816	0.827	101
CCCCc1nc(-c2nc(N)c3c(n2)NC(=O)C3(C)c2ccc(O)c(Cl)c2)cn2ncnc12 (stereo not drawn) [Example 74-B, 4-Amino-2-(8-butyl-[1,2,4]triazolo[1,5-a]pyrazin-6-yl)-5-(3-chloro-4-hydroxyphenyl)-5-methyl-5,7-dihydro-6H-pyrrolo[2,3-d]pyrimidin-6-one]		131	6.17	122
CC1(c2cccc(O)c2)C(=O)Nc2nc(-c3cn4ccnc4c(Cc4cccc(Cl)c4)n3)nc(N)c21 (stereo not drawn) [Example 124-B, 4-Amino-2-{8-[(3-chlorophenyl)methyl]-imidazo[1,2-a]pyrazin-6-yl}-5-(3-hydroxyphenyl)-5-methyl-5,7-dihydro-6H-pyrrolo[2,3-d]pyrimidin-6-one]		224	2.63	113
CC1(c2cc(O)c(C#N)c(F)c2)C(=O)Nc2nc(-c3cn4ccnc4c(Cc4cc(F)ccc4F)n3)nc(N)c21 (stereo not drawn) [Example 101-B, 4-(4-Amino-2-{8-[(2,5-difluorophenyl)methyl]imidazo[1,2-a]pyrazin-6-yl}-5-methyl-6-oxo-6,7-dihydro-5H-pyrrolo[2,3-d]pyrimidin-5-yl)-2-fluoro-6-hydroxybenzonitrile]		282	0.162	53
CC1(c2cc(O)c(Cl)c(F)c2)C(=O)Nc2nc(-c3cn4ccnc4c(Cc4cc(F)ccc4F)n3)nc(N)c21 (stereo not drawn) [Example 6-B, 4-Amino-5-(4-chloro-3-fluoro-5-hydroxyphenyl)-2-{8-[(2,5-difluorophenyl)methyl]imidazo[1,2-a]pyrazin-6-yl}-5-methyl-5,7-dihydro-6H-pyrrolo[2,3-d]pyrimidin-6-one]		94	0.094	113

Now from value to molecule:

% Activation (sGC α1/β1 heterodimer; cGMP production as percentage of maximum of compound A (set to 100%)) [%]	EC50 (sGC α1/β1 heterodimer) [nM]	Ki [1] [nM]	Emax (sGC α1/β1 heterodimer) [%]	Compound
	645	8.79	99	CC1(c2ccc(O)c(Cl)c2)C(=O)Nc2nc(-c3cn4ccnc4c(CCC4CCCCC4)n3)nc(N)c21 (stereo not drawn) [Example 77-B, 4-Amino-5-(3-chloro-4-hydroxyphenyl)-2-(8-(2-cyclohexylethyl)imidazo[1,2-a]pyrazin-6-yl)-5-methyl-5,7-dihydro-6H-pyrrolo[2,3-d]pyrimidin-6-one]
	2860	0.729	104	CC1(c2cc(O)c(Cl)cn2)C(=O)Nc2nc(-c3cn4ccnc4c(Cc4ccc(F)cc4)n3)nc(N)c21 (stereo not drawn) [Example 92-B, 4-Amino-5-(5-chloro-4-hydroxypyridin-2-yl)-2-{8-[(4-fluorophenyl)methyl]imidazo[1,2-a]pyrazin-6-yl}-5-methyl-5,7-dihydro-6H-pyrrolo[2,3-d]pyrimidin-6-one]
	2970	1.09	79	CC1(c2cc(O)c(C#N)c(Cl)c2)C(=O)Nc2nc(-c3cn4ccnc4c(Cc4ccccc4F)n3)nc(N)c21 (stereo not drawn) [Example 143-A, 4-(4-amino-2-{8-(2-fluorobenzyl)imidazo-[1,2-a]pyrazin-6-yl}-5-methyl-6-oxo-6,7-dihydro-5H-pyrrolo-[2,3-d]pyrimidin-5-yl)-2-chloro-6-hydroxy-benzonitrile]
	547	7.89	110	CCCCc1nc(-c2nc(N)c3c(n2)NC(=O)C3(C)c2ccc(C(F)(F)F)c(O)c2)cn2ccnc12 (stereo not drawn) [Example 76-B, 4-Amino-2-(8-butylimidazo[1,2-a]pyrazin-6-yl)-5-(3-hydroxy-4-(trifluoromethyl)phenyl)-5-methyl-5,7-dihydro-6H-pyrrolo[2,3-d]pyrimidin-6-one]
	1350	0.706	99	CC1(c2cc(O)c(Cl)cn2)C(=O)Nc2nc(-c3cn4ccnc4c(CC4CCCC4)n3)nc(N)c21 (stereo not drawn) [Example 141-B, 4-amino-5-(5-chloro-4-hydroxypyridin-2-yl)-2-(8-(cyclopentylmethyl)-imidazo[1,2-a]pyrazin-6-yl)-5-methyl-5,7-dihydro-6H-pyrrolo-[2,3-d]pyrimidin-6-one]
	75	0.199	141	CC1(c2ccc(Cl)c(O)c2)C(=O)Nc2nc(-c3cn4ccnc4c(Cc4ccc(F)cc4F)n3)nc(N)c21 (stereo not drawn) [Example 91-A, 4-Amino-5-(4-chloro-3-hydroxyphenyl)-2-{8-[(2,4-difluorophenyl)methyl]imidazo[1,2-a]pyrazin-6-yl}-5-methyl-5,7-dihydro-6H-pyrrolo[2,3-d]pyrimidin-6-one]
	3460	4.62	84	CCCCc1nc(-c2nc(N)c3c(n2)NC(=O)C3(C)c2cc(O)c(Cl)cn2)cn2ccnc12 (stereo not drawn) [Example 72-B, 4-Amino-2-(8-butylimidazo[1,2-a]pyrazin-6-yl)-5-(5-chloro-4-hydroxypyridin-2-yl)-5-methyl-5,7-dihydro-6H-pyrrolo[2,3-d]pyrimidin-6-one]
	82	0.274	93	CC1(c2cccc(O)c2)C(=O)Nc2nc(-c3cn4ccnc4c(Cc4ccc(F)cc4)n3)nc(N)c21 (stereo not drawn) [Example 31-B, 4-Amino-2-{8-[(4-fluorophenyl)methyl]imidazo[1,2-a]pyrazin-6-yl}-5-(3-hydroxyphenyl)-5-methyl-5,7-dihydro-6H-pyrrolo[2,3-d]pyrimidin-6-one]
